Data as given in ChEMBL document CHEMBL5608141, “Identification of compartment-specific drug sensitivities in CRC organoid-stroma co-cultures” (2024).

Assays:
Format in all cases: functional, Homo sapiens
Set-up in all cases: dose or concentration left out as unconfirmed
Colon cancer organoid [1] = assay: Identification of compartment-specific drug sensitivities in O20 CRC organoid-stroma F20 CAF co-cultures. Organoid is transduced with Lucferase2-P2A-EGFP lentivirus, fibroblast with Renilla-dsRed lentivirus. Dual-Glo Luciferase assay is used to report viability data.
Colon cancer organoid [2] = assay: Identification of compartment-specific drug sensitivities in O06 CRC organoid-stroma F06 CAF co-cultures. Organoid is transduced with Lucferase2-P2A-EGFP lentivirus, fibroblast with Renilla-dsRed lentivirus. Dual-Glo Luciferase assay is used to report viability data.
Colon cancer organoid [3] = assay: Identification of compartment-specific drug sensitivities in O14 CRC organoid-stroma F14 CAF co-cultures. Organoid is transduced with Lucferase2-P2A-EGFP lentivirus, fibroblast with Renilla-dsRed lentivirus. Dual-Glo Luciferase assay is used to report viability data.
[4] = Transduced with Lucferase2-P2A-EGFP lentivirus
[5] = Transduced with Renilla-dsRed lentivirus

## C[C@@H](c1cccc(C#N)c1)n1cc(Cl)cc(C(N)=O)c1=N.Cl
Colon cancer organoid [1]; [4]
  Cell Viability: 64.4613%
Colon cancer organoid [1]; [5]
  Cell Viability: 72.4154%
Colon cancer organoid [2]; [4]
  Cell Viability: 92.5611%
Colon cancer organoid [2]; [5]
  Cell Viability: 127.503%
Colon cancer organoid [3]; [4]
  Cell Viability: 101.632%
Colon cancer organoid [3]; [5]
  Cell Viability: 106.42%

## Cc1c(C(=O)O)cc(-c2ccc(C3CCNCC3)cc2)c2ccc(-c3ccc(C(F)(F)F)cc3)cc12.Cl
Colon cancer organoid [1]; [4]
  Cell Viability: 115.772%
Colon cancer organoid [1]; [5]
  Cell Viability: 99.1911%
Colon cancer organoid [2]; [4]
  Cell Viability: 69.2582%
Colon cancer organoid [2]; [5]
  Cell Viability: 93.9723%
Colon cancer organoid [3]; [4]
  Cell Viability: 68.1012%
Colon cancer organoid [3]; [5]
  Cell Viability: 79.713%

## COc1ccc(COc2ccc(Cc3cnc(N)nc3N)cc2OC)cc1 [GW632580X]
Colon cancer organoid [1]; [4]
  Cell Viability: 200.298%
Colon cancer organoid [1]; [5]
  Cell Viability: 84.9331%
Colon cancer organoid [2]; [4]
  Cell Viability: 84.8428%
Colon cancer organoid [2]; [5]
  Cell Viability: 83.7807%
Colon cancer organoid [3]; [4]
  Cell Viability: 144.194%
Colon cancer organoid [3]; [5]
  Cell Viability: 102.086%

## COc1cc2c(cc1-c1c(C)noc1C)ncc1[nH]c(=O)n([C@H](C)c3ccccn3)c12
Colon cancer organoid [1]; [4]
  Cell Viability: 26.1265%
Colon cancer organoid [1]; [5]
  Cell Viability: 172.215%
Colon cancer organoid [2]; [4]
  Cell Viability: 43.5488%
Colon cancer organoid [2]; [5]
  Cell Viability: 325.273%
Colon cancer organoid [3]; [4]
  Cell Viability: 55.7493%
Colon cancer organoid [3]; [5]
  Cell Viability: 184.963%

## CC(C)Oc1ccc(-c2nn([C@@H](C)c3oc4ccc(F)cc4c(=O)c3-c3cccc(F)c3)c3ncnc(N)c23)cc1F [UMBRALISIB]
Colon cancer organoid [1]; [4]
  Cell Viability: 103.314%
Colon cancer organoid [1]; [5]
  Cell Viability: 87.858%
Colon cancer organoid [2]; [4]
  Cell Viability: 96.678%
Colon cancer organoid [2]; [5]
  Cell Viability: 112.425%
Colon cancer organoid [3]; [4]
  Cell Viability: 161.449%
Colon cancer organoid [3]; [5]
  Cell Viability: 91.4949%

## CN(C)c1ncnc(-c2ccc3nc(Nc4cc(CN5CCN(C(=O)CC(F)(F)F)CC5)ccn4)[nH]c3c2)c1Cl [BAY-440]
Colon cancer organoid [1]; [4]
  Cell Viability: 123.006%
Colon cancer organoid [1]; [5]
  Cell Viability: 109.622%
Colon cancer organoid [2]; [4]
  Cell Viability: 110.52%
Colon cancer organoid [2]; [5]
  Cell Viability: 104.43%
Colon cancer organoid [3]; [4]
  Cell Viability: 161.186%
Colon cancer organoid [3]; [5]
  Cell Viability: 109.54%

## COc1c(OCCCN2CCOCC2)ccc2c1N=C(NC(=O)c1cnc(N)nc1)N1CCN=C21 [COPANLISIB]
Colon cancer organoid [1]; [4]
  Cell Viability: 2.299%
Colon cancer organoid [1]; [5]
  Cell Viability: 117.524%
Colon cancer organoid [2]; [4]
  Cell Viability: 1.487%
Colon cancer organoid [2]; [5]
  Cell Viability: 40.0213%
Colon cancer organoid [3]; [4]
  Cell Viability: 8.823%
Colon cancer organoid [3]; [5]
  Cell Viability: 38.6713%

## CN(C)C(=O)Cn1cc(-c2nc(C3(c4ccc(-c5cnc(N)nc5)cc4)CC3)no2)cn1 [BI 0153]
Colon cancer organoid [1]; [4]
  Cell Viability: 119.435%
Colon cancer organoid [1]; [5]
  Cell Viability: 91.9766%
Colon cancer organoid [2]; [4]
  Cell Viability: 137.539%
Colon cancer organoid [2]; [5]
  Cell Viability: 73.6279%
Colon cancer organoid [3]; [4]
  Cell Viability: 127.983%
Colon cancer organoid [3]; [5]
  Cell Viability: 104.715%

## CNCCN1CCC(c2cc(CN(C)C(=O)c3cccc(Oc4ccccc4)c3)ccn2)CC1
Colon cancer organoid [1]; [4]
  Cell Viability: 67.5507%
Colon cancer organoid [1]; [5]
  Cell Viability: 133.473%
Colon cancer organoid [2]; [4]
  Cell Viability: 83.6812%
Colon cancer organoid [2]; [5]
  Cell Viability: 129.007%
Colon cancer organoid [3]; [4]
  Cell Viability: 146.315%
Colon cancer organoid [3]; [5]
  Cell Viability: 111.036%

## CN([C@@H]1CCc2c(CC(=O)O)c3cc(S(C)(=O)=O)ccc3n2C1)S(=O)(=O)c1ccc(F)cc1 [CRTH2-negative-control]
Colon cancer organoid [1]; [4]
  Cell Viability: 107.561%
Colon cancer organoid [1]; [5]
  Cell Viability: 126.69%
Colon cancer organoid [2]; [4]
  Cell Viability: 78.3965%
Colon cancer organoid [2]; [5]
  Cell Viability: 74.5251%
Colon cancer organoid [3]; [4]
  Cell Viability: 107.65%
Colon cancer organoid [3]; [5]
  Cell Viability: 94.275%

## Cc1ccccc1Oc1cc(-n2c(=O)cc(C(F)(F)F)[nH]c2=O)c2ccccc2c1Cl [BAY-069]
Colon cancer organoid [1]; [4]
  Cell Viability: 84.1162%
Colon cancer organoid [1]; [5]
  Cell Viability: 119.466%
Colon cancer organoid [2]; [4]
  Cell Viability: 128.819%
Colon cancer organoid [2]; [5]
  Cell Viability: 153.89%
Colon cancer organoid [3]; [4]
  Cell Viability: 126.47%
Colon cancer organoid [3]; [5]
  Cell Viability: 121.899%

## CN1C[C@H](Nc2cnn(C)c(=O)c2Br)C[C@H](c2ccccc2)C1
Colon cancer organoid [1]; [4]
  Cell Viability: 160.124%
Colon cancer organoid [1]; [5]
  Cell Viability: 106.068%
Colon cancer organoid [2]; [4]
  Cell Viability: 52.3497%
Colon cancer organoid [2]; [5]
  Cell Viability: 181.327%
Colon cancer organoid [3]; [4]
  Cell Viability: 132.078%
Colon cancer organoid [3]; [5]
  Cell Viability: 105.854%

## COc1ccc(Oc2cc(NCCC(F)(F)F)c3ncc(-c4ccc(C(=O)NC5CC5)c(C)c4)n3n2)c(F)c1F [BAY-1217389]
Colon cancer organoid [1]; [4]
  Cell Viability: 10.0806%
Colon cancer organoid [1]; [5]
  Cell Viability: 184.891%
Colon cancer organoid [2]; [4]
  Cell Viability: 5.893%
Colon cancer organoid [2]; [5]
  Cell Viability: 100.303%
Colon cancer organoid [3]; [4]
  Cell Viability: 9.59%
Colon cancer organoid [3]; [5]
  Cell Viability: 58.9964%
